Laboratory results published in US20110159504A1, “METHYLATION MARKERS FOR SENSITIVITY TO MICROTUBE BASED THERAPIES AND METHODS OF USE” (THE JOHNS HOPKINS UNIVERSITY, priority 2008, published 2011).
Entries after “also recorded” stand apart in the source; their conditions may differ.

Experiments:
[1] = system: advanced localized esophageal cancer; assay: Response (pCR) and overall survival of esophageal cancer patients after neoadjuvant chemoradiotherapy and surgery, by CHFR methylation status; assay type: in vivo, human; conditions: for Overall survival when CHFR methylation present vs. absent: paclitaxel n=31, docetaxel n=18, Kaplan-Meier; for Overall survival, docetaxel vs. paclitaxel: taxane-based therapy, N=49
Procedure: Endoscopic tumor biopsy specimens were studied from 81 patients with advanced localized esophageal cancer scheduled to undergo neoadjuvant chemoradiotherapy and surgery at the Johns Hopkins Hospital (JHH) between January 1995 and January 2007. Forty-nine patients were treated with taxane based combination chemoradiotherapy. Pretreatment esophageal tumor tissue from endoscsopic biopsy was initially available from JHH for twenty-one patients treated with taxanes. After an analysis of these initial 21 patients, IRB permission was obtained to request further biopsy specimens from referring endoscopy centers for patients subsequently treated at Johns Hopkins Hospital. This allowed analysis of pretreatment endoscopic tumor biopsies from an additional 28 patients treated with taxanes and 32 patients treated with non-taxane regimens. […] Of the forty-nine taxane-treated patients, thirty-one received paclitaxel containing combinations, while eighteen received a docetaxel-based combination shown in the Table below.
Response to preoperative chemoradiotherapy was based on pathology of the resected esophagus and nodal tissue specimen and classified as either pathologic complete response (pCR) or non-pCR, where pCR is the complete absence of intact tumor cells in surgical pathology specimens. We verified histological results and deaths during follow-up by re-examining original hospital records. This study was approved by the Johns Hopkins Institutional Review Board.
Methylation of CHFR was determined by detecting analyte (CHFR and ACTS) with real-time MSP using molecular beacons. These consisted of parallel amplification/quantification using specific primer and detector pairs for each analyte using the iCycler (BioRad Laboratories, Hercules, Calif.). […] Duplicate PCR amplifications were analyzed using iQuant 3.0 software (BioRad), exported as Ct values, and used to calculate copy numbers based on a linear regression of values plotted on a standard curve of 20-2×10^6 gene copy equivalents of plasmid DNA containing bisulfite modified CHFR. CHFR copy numbers were divided by ACTB copy numbers for each sample to normalize for DNA quality and quantity, multiplied by 100 for convenience to determine the ratio-value. […]
Based upon findings from the initial 21 patients treated with taxanes and 40% methylation prevalence, the study size necessary to detect a hazard ratio of death of 3.00 for unmethylated CHFR was estimated. […] The primary endpoint was time to death or censor measured from the origin date of pretreatment endoscopic biopsy. […] Associations between clinical response and CHFR methylation were assessed using logistic regression. […] Statistical comparisons and survival between groups were analyzed using the log-rank test. […]

[2] = system: CHFR expression in esophageal cancer cell lines; assay: CHFR expression by RT-PCR in esophageal cancer cell lines after treatment with demethylating agent; assay type: cell-based; conditions: for Expression of CHFR (RNA level, RT-PCR) in CHFR-methylated cell lines: KYSE150 and KYSE510, no expression at baseline, 72 hour treatment
Excerpt: A) Methylation-specific PCR (MSP) of the CHFR promoter region was examined in esophageal cancer cell lines. […] B) Expression of CHFR as determined by RT-PCR. […] C) Position of MSP primers and molecular beacon in the promoter region of the CHFR gene. A previously described gel-based MSP assay for detection of CHFR methylation in colorectal cancer was used 20.

| Compound | Overall survival when CHFR methylation present vs. absent [1] | Overall survival, docetaxel vs. paclitaxel [1] | Expression of CHFR (RNA level, RT-PCR) in CHFR-methylated cell lines [2] | Expression of CHFR (RNA level, RT-PCR) in CHFR-methylated cell lines ([2]; listed as 5-aza-2′ deoxycytidine) | Expression of CHFR (RT-PCR) in unmethylated cell lines ([2]; all other (unmethylated) esophageal cancer cell lines, express CHFR at baseline) |
| --- | --- | --- | --- | --- | --- |
| CC(=O)O[C@H]1C(=O)[C@@]2(C)[C@H]([C@H](OC(=O)c3ccccc3)[C@]3(O)C[C@H](OC(=O)[C@H](O)[C@@H](NC(=O)c4ccccc4)c4ccccc4)C(C)=C1C3(C)C)[C@]1(OC(C)=O)CO[C@@H]1C[C@@H]2O [paclitaxel] | survival advantage; also recorded: significantly greater | no difference | – | – | – |
| CC(=O)O[C@@]12CO[C@@H]1C[C@H](O)[C@@]1(C)C(=O)[C@H](O)C3=C(C)[C@@H](OC(=O)[C@H](O)[C@@H](NC(=O)OC(C)(C)C)c4ccccc4)C[C@@](O)([C@@H](OC(=O)c4ccccc4)[C@H]21)C3(C)C [docetaxel] | survival advantage; also recorded: improvement in survival | no difference | – | – | – |
| Nc1ncn([C@H]2C[C@H](O)[C@@H](CO)O2)c(=O)n1 [5-aza-2′-deoxycytidine] | – | – | re-express the gene at the RNA level | reversed | not affected |
